Blank lines part the entries; values can stand above or below the molecule they belong to.
Assays:
Assay in all cases: Caliper, Mobility shift assay off-chip
FGFR1 (human) = FGFR1 (human) (UniProt P11362)
CLK2 (human) = CLK2 (human) (UniProt P49760)
[1] = test system: FGFR3 (human), P22607 [K650E]
PRKCI (human) = PRKCI (human) (UniProt P41743)
TXK (human) = TXK (human) (UniProt P42681)
CSNK1G2 (human) = CSNK1G2 (human) (UniProt P78368)
ALK (human) = ALK (human) (UniProt Q9UM73)
DAPK3 (human) = DAPK3 (human) (UniProt O43293)
PASK (human) = PASK (human) (UniProt Q96RG2)
CSNK1G3 (human) = CSNK1G3 (human) (UniProt Q9Y6M4)
HIPK2 (human) = HIPK2 (human) (UniProt Q9H2X6)
TYRO3 (human) = TYRO3 (human) (UniProt Q06418)
[2] = test system: EGFR (human), P00533 [T790M/L858R]
EPHA8 (human) = EPHA8 (human) (UniProt P29322)
PHKG1 (human) = PHKG1 (human) (UniProt Q16816)
MST1R (human) = MST1R (human) (UniProt Q04912)
YES1 (human) = YES1 (human) (UniProt P07947)
[3] = molecular target: PRKAA2 PRKAB1 PRKAG1 (human) (UniProt Q9Y478+P54646+P54619)
ROCK1 (human) = ROCK1 (human) (UniProt Q13464)
[4] = test system: PDGFRA (human), P16234 [V561D]
DAPK1 (human) = DAPK1 (human) (UniProt P53355)
[5] = test system: RET (human), P07949 [Y791F]
PHKG2 (human) = PHKG2 (human) (UniProt P15735)
MARK4 (human) = MARK4 (human) (UniProt Q96L34)
RET (human) = RET (human) (UniProt P07949)
RPS6KA6 KD1 KD2 (human) = RPS6KA6 KD1 KD2 (human) (UniProt Q9UK32)
ROS1 (human) = ROS1 (human) (UniProt P08922)
MERTK (human) = MERTK (human) (UniProt Q12866)
[6] = test system: EGFR (human), P00533 [T790M]
FRK (human) = FRK (human) (UniProt P42685)
JAK2 JH1 JH2 (human) = JAK2 JH1 JH2 (human) (UniProt O60674)
AXL (human) = AXL (human) (UniProt P30530)
CDK5 CDK5R1 p25 (human) = CDK5 CDK5R1 p25 (human) (UniProt Q15078+Q00535)

FGFR1 (human), sequence (P11362 whole entry, looked up): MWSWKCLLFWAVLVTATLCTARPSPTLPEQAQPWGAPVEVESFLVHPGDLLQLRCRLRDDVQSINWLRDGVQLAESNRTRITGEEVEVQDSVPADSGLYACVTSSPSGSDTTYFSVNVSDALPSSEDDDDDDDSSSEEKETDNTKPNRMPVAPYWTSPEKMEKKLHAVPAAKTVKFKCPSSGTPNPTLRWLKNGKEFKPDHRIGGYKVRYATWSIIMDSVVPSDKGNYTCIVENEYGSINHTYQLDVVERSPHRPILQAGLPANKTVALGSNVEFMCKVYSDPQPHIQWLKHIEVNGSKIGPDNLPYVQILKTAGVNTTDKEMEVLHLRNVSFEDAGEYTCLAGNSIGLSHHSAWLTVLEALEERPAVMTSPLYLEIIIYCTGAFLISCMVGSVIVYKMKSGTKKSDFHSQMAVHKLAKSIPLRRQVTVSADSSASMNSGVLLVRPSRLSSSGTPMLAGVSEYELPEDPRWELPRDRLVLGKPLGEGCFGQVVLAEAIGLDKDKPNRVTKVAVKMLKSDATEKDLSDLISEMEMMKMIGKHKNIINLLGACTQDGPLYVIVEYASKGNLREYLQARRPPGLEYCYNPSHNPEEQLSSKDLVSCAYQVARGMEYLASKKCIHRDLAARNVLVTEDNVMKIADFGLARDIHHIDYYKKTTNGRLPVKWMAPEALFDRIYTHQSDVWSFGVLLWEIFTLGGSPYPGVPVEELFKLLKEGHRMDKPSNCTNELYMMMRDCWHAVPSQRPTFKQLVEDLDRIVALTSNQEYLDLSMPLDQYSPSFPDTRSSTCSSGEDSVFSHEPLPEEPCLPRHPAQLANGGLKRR
TYRO3 (human), sequence (Q06418 whole entry, looked up): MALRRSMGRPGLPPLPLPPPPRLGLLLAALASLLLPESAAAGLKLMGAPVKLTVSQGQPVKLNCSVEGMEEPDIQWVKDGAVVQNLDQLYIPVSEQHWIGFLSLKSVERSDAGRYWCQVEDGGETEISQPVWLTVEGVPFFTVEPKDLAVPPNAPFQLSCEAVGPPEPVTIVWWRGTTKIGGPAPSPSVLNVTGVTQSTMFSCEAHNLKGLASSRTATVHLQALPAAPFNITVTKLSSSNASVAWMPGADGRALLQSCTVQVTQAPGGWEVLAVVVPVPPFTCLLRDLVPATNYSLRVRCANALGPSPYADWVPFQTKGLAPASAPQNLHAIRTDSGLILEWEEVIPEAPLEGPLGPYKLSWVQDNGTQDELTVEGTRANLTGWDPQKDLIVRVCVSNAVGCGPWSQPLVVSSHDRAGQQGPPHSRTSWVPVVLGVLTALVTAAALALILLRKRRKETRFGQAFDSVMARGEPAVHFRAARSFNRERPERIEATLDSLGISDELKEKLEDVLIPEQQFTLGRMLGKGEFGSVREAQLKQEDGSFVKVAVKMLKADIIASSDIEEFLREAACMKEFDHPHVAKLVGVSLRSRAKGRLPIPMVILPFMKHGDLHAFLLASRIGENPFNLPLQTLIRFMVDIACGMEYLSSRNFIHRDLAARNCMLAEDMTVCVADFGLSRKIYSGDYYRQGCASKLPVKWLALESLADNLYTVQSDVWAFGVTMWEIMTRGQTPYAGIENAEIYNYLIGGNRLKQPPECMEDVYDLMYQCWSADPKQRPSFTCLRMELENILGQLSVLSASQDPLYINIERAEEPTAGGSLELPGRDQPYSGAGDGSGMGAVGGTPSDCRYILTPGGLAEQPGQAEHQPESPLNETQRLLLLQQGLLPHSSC
EGFR (human), P00533 [T790M], sequence (P00533 whole entry T790M, looked up): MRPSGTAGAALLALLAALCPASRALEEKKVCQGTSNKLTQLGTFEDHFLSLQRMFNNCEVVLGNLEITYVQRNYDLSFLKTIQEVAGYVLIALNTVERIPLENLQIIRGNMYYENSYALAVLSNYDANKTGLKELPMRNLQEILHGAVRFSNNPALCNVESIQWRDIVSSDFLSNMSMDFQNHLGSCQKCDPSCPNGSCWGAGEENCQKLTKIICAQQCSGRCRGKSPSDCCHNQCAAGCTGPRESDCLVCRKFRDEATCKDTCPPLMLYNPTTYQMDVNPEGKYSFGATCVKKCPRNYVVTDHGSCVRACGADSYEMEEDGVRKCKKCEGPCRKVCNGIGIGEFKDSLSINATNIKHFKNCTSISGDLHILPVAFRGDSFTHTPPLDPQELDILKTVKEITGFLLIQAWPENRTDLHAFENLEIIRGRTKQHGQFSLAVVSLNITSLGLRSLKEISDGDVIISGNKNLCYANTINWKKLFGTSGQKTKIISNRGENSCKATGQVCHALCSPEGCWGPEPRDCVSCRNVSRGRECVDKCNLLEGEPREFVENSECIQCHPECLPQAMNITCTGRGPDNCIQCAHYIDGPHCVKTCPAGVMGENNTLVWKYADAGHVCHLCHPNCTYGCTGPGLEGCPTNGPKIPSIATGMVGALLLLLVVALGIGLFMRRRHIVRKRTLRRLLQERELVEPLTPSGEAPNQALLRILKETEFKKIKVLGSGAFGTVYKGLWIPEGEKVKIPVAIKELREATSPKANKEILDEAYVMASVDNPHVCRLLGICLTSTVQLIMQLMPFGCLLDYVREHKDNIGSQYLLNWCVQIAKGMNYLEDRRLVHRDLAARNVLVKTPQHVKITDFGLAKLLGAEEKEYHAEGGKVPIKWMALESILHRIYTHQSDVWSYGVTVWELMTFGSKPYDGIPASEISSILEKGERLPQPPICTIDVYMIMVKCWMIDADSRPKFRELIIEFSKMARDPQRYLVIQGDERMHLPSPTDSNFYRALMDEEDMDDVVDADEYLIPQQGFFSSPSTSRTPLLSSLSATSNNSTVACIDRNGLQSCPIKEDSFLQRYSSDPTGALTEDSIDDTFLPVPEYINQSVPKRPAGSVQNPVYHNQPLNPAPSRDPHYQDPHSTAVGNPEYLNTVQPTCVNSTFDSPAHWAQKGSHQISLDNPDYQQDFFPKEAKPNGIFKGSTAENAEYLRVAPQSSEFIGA
MERTK (human), sequence (Q12866 whole entry, looked up): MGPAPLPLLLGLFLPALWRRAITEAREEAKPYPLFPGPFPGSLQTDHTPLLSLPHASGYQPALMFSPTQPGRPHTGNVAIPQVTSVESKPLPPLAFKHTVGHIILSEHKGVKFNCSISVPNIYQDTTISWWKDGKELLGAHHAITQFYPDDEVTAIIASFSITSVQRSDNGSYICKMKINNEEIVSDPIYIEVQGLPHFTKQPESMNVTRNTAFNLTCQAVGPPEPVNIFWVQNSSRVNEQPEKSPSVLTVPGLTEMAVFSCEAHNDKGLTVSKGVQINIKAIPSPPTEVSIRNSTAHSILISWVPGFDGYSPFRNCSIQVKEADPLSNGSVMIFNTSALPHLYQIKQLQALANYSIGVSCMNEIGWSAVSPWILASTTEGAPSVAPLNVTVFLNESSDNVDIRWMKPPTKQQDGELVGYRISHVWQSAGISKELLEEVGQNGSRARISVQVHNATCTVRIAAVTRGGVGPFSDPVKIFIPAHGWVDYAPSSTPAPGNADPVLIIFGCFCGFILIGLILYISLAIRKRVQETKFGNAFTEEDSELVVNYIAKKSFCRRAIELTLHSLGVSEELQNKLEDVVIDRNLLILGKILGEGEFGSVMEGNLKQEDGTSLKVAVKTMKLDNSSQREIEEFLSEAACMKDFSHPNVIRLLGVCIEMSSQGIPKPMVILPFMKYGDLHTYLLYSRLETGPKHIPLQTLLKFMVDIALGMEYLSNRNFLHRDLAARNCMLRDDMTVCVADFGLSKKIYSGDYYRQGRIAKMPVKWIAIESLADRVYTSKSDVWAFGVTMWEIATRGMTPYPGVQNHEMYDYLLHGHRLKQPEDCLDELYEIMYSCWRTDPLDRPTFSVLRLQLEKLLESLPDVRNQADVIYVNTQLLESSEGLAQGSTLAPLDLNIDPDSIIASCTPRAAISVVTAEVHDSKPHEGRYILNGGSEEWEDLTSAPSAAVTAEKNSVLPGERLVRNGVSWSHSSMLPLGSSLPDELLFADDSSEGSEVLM
PHKG1 (human), sequence (Q16816 whole entry, looked up): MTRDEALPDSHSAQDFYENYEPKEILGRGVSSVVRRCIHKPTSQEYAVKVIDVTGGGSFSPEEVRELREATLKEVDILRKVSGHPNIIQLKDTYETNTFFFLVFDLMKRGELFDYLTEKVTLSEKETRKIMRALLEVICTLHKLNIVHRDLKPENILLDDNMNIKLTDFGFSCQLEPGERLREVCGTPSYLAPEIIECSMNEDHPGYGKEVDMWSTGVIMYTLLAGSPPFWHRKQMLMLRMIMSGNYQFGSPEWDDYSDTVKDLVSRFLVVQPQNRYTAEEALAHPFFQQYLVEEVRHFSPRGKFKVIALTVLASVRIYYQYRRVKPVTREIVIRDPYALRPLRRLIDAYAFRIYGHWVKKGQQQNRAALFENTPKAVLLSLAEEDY
YES1 (human), sequence (P07947 whole entry, looked up): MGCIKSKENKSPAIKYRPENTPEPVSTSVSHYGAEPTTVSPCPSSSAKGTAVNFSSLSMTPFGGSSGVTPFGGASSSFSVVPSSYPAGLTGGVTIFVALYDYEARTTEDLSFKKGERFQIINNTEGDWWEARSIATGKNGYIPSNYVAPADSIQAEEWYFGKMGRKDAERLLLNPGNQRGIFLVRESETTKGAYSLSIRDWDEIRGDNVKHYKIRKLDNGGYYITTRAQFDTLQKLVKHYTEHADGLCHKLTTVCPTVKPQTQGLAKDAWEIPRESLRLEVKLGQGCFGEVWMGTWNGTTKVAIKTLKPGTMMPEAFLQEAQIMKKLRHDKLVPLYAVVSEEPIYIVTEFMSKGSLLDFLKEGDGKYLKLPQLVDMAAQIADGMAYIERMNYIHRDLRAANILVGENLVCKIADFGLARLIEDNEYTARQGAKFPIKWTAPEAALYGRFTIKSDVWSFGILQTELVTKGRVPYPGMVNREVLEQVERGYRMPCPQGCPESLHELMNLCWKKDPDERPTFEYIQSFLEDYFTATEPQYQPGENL

- inhibition (FGFR1 (human); compound 0.1 µM): 12.3%
- inhibition (FGFR1 (human); compound 1.0 µM): 61.2%
SMILES: Cn1cc(-c2cnc3ccc4ccc(CS(=O)(=O)CCc5ccccn5)cc4c(=O)c3c2)cn1

- inhibition (FGFR1 (human); compound 0.01 µM): 3.8%
- inhibition (FGFR1 (human); compound 0.1 µM): 10.7%
SMILES: O=c1c2cc(CS(=O)(=O)NCc3ccccn3)ccc2ccc2ncc(C3CCNCC3)cc12

- inhibition (CLK2 (human); compound 0.1 µM): 3.2%
- inhibition (CLK2 (human); compound 1.0 µM): 16.8%
- inhibition ([1]; compound 0.1 µM): 15.1%
- inhibition ([1]; compound 1.0 µM): 59.4%
- inhibition (PRKCI (human); compound 0.1 µM): 3.9%
- inhibition (PRKCI (human); compound 1.0 µM): -0.5%
- inhibition (TXK (human); compound 0.1 µM): 0.6%
- inhibition (TXK (human); compound 1.0 µM): 19%
- inhibition (CSNK1G2 (human); compound 0.1 µM): -9%
- inhibition (CSNK1G2 (human); compound 1.0 µM): 1.2%
- inhibition (ALK (human); compound 0.1 µM): -0.1%
- inhibition (ALK (human); compound 1.0 µM): 12.2%
- inhibition (DAPK3 (human); compound 0.1 µM): 5%
- inhibition (DAPK3 (human); compound 1.0 µM): 10.3%
- inhibition (PASK (human); compound 0.1 µM): -10.1%
- inhibition (PASK (human); compound 1.0 µM): 5.9%
- inhibition (CSNK1G3 (human); compound 0.1 µM): 9.7%
- inhibition (CSNK1G3 (human); compound 1.0 µM): 6.5%
- inhibition (HIPK2 (human); compound 0.1 µM): 8.7%
- inhibition (HIPK2 (human); compound 1.0 µM): 14.7%
- inhibition (TYRO3 (human); compound 0.1 µM): 20.2%
- inhibition (TYRO3 (human); compound 1.0 µM): 66.3%
- inhibition ([2]; compound 0.1 µM): 6.2%
- inhibition ([2]; compound 1.0 µM): 2.9%
- inhibition (EPHA8 (human); compound 0.1 µM): -1.9%
- inhibition (EPHA8 (human); compound 1.0 µM): 4.6%
- inhibition (FGFR1 (human); compound 0.1 µM): -11.4%
- inhibition (FGFR1 (human); compound 1.0 µM): 26.7%
- inhibition (PHKG1 (human); compound 0.1 µM): -1.3%
- inhibition (PHKG1 (human); compound 1.0 µM): 17.4%
- inhibition (MST1R (human); compound 0.1 µM): 23.8%
- inhibition (MST1R (human); compound 1.0 µM): 78.2%
- inhibition (YES1 (human); compound 0.1 µM): -7.2%
- inhibition (YES1 (human); compound 1.0 µM): 29.9%
- inhibition ([3]; compound 0.1 µM): 3.4%
- inhibition ([3]; compound 1.0 µM): 17.6%
- inhibition (ROCK1 (human); compound 0.1 µM): 14.4%
- inhibition (ROCK1 (human); compound 1.0 µM): 1.7%
- inhibition ([4]; compound 0.1 µM): 16.9%
- inhibition ([4]; compound 1.0 µM): 61.1%
- inhibition (DAPK1 (human); compound 0.1 µM): 3%
- inhibition (DAPK1 (human); compound 1.0 µM): 9.2%
- inhibition ([5]; compound 0.1 µM): 10.2%
- inhibition ([5]; compound 1.0 µM): 43.4%
- inhibition (PHKG2 (human); compound 0.1 µM): 17.8%
- inhibition (PHKG2 (human); compound 1.0 µM): 12.7%
- inhibition (MARK4 (human); compound 0.1 µM): 7.3%
- inhibition (MARK4 (human); compound 1.0 µM): 16%
- inhibition (RET (human); compound 0.1 µM): 7.4%
- inhibition (RET (human); compound 1.0 µM): 44.1%
- inhibition (RPS6KA6 KD1 KD2 (human); compound 0.1 µM): 0.5%
- inhibition (RPS6KA6 KD1 KD2 (human); compound 1.0 µM): 5.6%
- inhibition (ROS1 (human); compound 0.1 µM): 1%
- inhibition (ROS1 (human); compound 1.0 µM): 12%
- inhibition (MERTK (human); compound 0.1 µM): 52.7%
- inhibition (MERTK (human); compound 1.0 µM): 94.5%
- inhibition ([6]; compound 0.1 µM): 11.2%
- inhibition ([6]; compound 1.0 µM): 1.9%
- inhibition (FRK (human); compound 0.1 µM): 1%
- inhibition (FRK (human); compound 1.0 µM): 8%
- inhibition (JAK2 JH1 JH2 (human); compound 0.1 µM): -35.1%
- inhibition (JAK2 JH1 JH2 (human); compound 1.0 µM): 41.2%
- inhibition (AXL (human); compound 0.1 µM): 30.6%
- inhibition (AXL (human); compound 1.0 µM): 77.3%
- inhibition (CDK5 CDK5R1 p25 (human); compound 0.1 µM): -5.4%
- inhibition (CDK5 CDK5R1 p25 (human); compound 1.0 µM): 11.9%
SMILES: CN(c1ccc2ccc3ncc(-c4cnn(C)c4)cc3c(=O)c2c1)S(=O)(=O)NCc1ccccn1

From the kinase profiling compilation of Christmann-Franck et al. (2016)
